Measured values from US20050107394A1, “Novel use of selective pde5 inhibitors” (priority 2001, published 2005).
“And” between values parts separate entries of the source, which are not always exact repeats. Equal entries are not always repeated. “Also recorded” adds a separate entry of the source.

Experiments:
[1] = tested on: bleomycin-induced pulmonary fibrosis in rabbits; assay: Shunting by MIGET in bleomycin-induced pulmonary fibrosis; format: in vivo, rabbit; conditions: for effect on shunting: NO inhaled, sildenafil oral; for shunting (MIGET), level reached: PGI 6 ng/kg/min systemic, NO 20 ppm inhaled, sildenafil 1 mg/kg oral
Description: FIG. 1: Result of determination of shunting with the aid of the model of bleomycin-induced pulmonary fibrosis in rabbits. The measurements by the inert gas exchange method (MIGET) [Wagner et al., J Appl Physiol. 1974;36:588-99] reveal that the shunting was increased by 15% in this model, compared with the untreated control. Systemically administered PGI [6 ng/kg body weight/min] (PGI, prostacyclin) increased the shunting to about 30%. […] Shunting was reduced to 6% by oral administration of the PDE5 inhibitor sidenafil [1 mg/kg body weight].
Healthy rabbits of both sexes were pretreated orally with a gyrase inhibitor (Baytril®) for one week. Ten animals pretreated in this way were not treated with bleomyin and served as control, and, on the day of exposure, the others were anaesthetized with a Ketanest®/Rompun® mixture, intubated intratracheally and ventilated mechanically. An ultrasonic nebulizer (MMAD 2.5 μm) was used to administer by inhalation exactly 1.8 U/kg of bodyweight of bleomycin under volume-controlled ventilation. After 4, 8, 16, 24, 32 and 64 days (in each case n≧5) post exposure, the animals were again anaesthetized, provided with an arterial access (right carotid artery) and underwent bodyweight-adapted ventilation via a tracheostomy in a volume-controlled method. The arterial pO2 and pCO2, and the static compliance of the lung were measured (by recording the intrathoracic pressure and with slow inflation/deflation manoeuvres). Subsequently, the lungs of these animals were dissected and perfused with a Krebs Hensefeit buffer. Under these conditions, the capillary filtraton coefficient (cfc) was then found from the weight gain of the organ after increasing the pulmonary venous pressure by 7.5 mmHg, and the peak ventilation pressure was found. After completion of these measurements, the left main bronchus was ligated in the end-inspiratory position and a bronchoalveolar lavage (BAL) was performed on the right lung. Subsequently, the large vessels and airways of the right lung were dissected off and the organ was homogenized. The left lung was perfusion-fixed with 4% formalin solution while maintaining a pressure gradient of 25 cm H2O and was then stored in 4% formalin until embedded. Firstly, the cells were removed from the BAL, counted and differentiated via a Papenheim stain. The cell-free BAL supernatant was then aliquoted and submitted to further analysis of the surfactant and coagulation properties and a determination of the matrix metallo proteinases (MMPs) and their inhibitors (TIMPs) and of soluble collagen. Bronchoalveolar deposition of 1.8 U/kg of bodyweight of bleomycin led initially to development of an ARDS-like event, with a massive restriction of gas exchange (paO2/FiO2 of >500 mmHg in the controls reduced to ˜110 mmHg on day 4), ground-glass opacities over all sections of the lung in the HRCT and an increase of about 5-fold in the capillary filtration coefficient (cfc). In the later phase of bleomycin-induced lung damage there was then development of pronounced fibrosis which could be confirmed on the basis of the increase in soluble collagen in the BAL and the hydroxyproline in the tissue, on the basis of the histological specimens and of the HRCT findings. […] Consistent with this, a pronounced increase in the extracellular matrix and an alveolar and also interstitial ingress of fibroblasts was observable in the histological sections. […]

[2] = tested on: patients with ILD displaying secondary PHT; assay: Arterial oxygen partial pressure (delta PaO2) in patients with ILD; format: in vivo, human; conditions: 7 patients with ILD; for arterial oxygen partial pressure (delta PaO2) / O2 saturation, increase: NO 20 ppm inhaled, sildenafil 50 mg oral
Description: FIG. 6: Result of determination of the arterial oxygen partial pressure (PaO2) on 7 patients with ILD displaying secondary PHT (pulmonary hypertension) measured as delta PaO2.
(§1) 7 patients with ILD underwent a Swan-Ganz catheter investigation with measurement of the ventilation/perfusion (V/Q) distribution (using the multiple inert gas elimination technique (MIGET)). After determination of the baseline parameters (haemodynamics and gas exchange), all the patients initially inhaled 20 ppm NO, followed by a second baseline period (10-15 min), and then PGI was infused (6 ng/kg bodyweight/min), again followed by a second baseline period (10-15 min) and then an oral dose of 50 mg of sildenafil was given (120-150 min follow-up). 5 of the 7 patients were controlled by continuous nasal oxygen therapy in order to reach an arterial oxygenation of >88%. The following parameters were measured under baseline conditions: mean pulmonary arterial pressure (mPAP) 39.6+/−2.8 mmHg and pulmonary vascular resistance index (PVRI) 1255+/−215 dyn*s*cm−5*m^2.

[3] = tested on: patients with ILD (interstitial lung disease) displaying secondary PHT; assay: Shunting by MIGET in patients with ILD; format: in vivo, human; conditions: 7 patients with ILD; for shunting / shunt perfusion (MIGET), level reached: baseline 7.2%, PGI i.v., NO 20 ppm inhaled, sildenafil 50 mg oral
Description: FIG. 5: Result of determination of the shunting on 7 patients with ILD (interstitial lung disease) displaying secondary PHT. The measurement took place by the inert gas exchange method (MIGET) [Wagner et al. J Appl Physiol. 1974;36:588-99]. The shunting was reduced to 5% and 4.8%, respectively, by NO (inhaled) [20 ppm] and sildenafil (oral) [50 mg]. The shunting was increased to 18% after administration of PGI (prostacyclin, intravenous) […]].
as §1

[4] = tested on: patients with COPD (chronic obstructive pulmonary disease); assay: Arterial oxygen saturation at rest in COPD patients; format: in vivo, human; design: dose or concentration left out as unconfirmed; conditions: 4 COPD patients; sildenafil oral, 6 months
Description: FIG. 8: Result of determination of the arterial oxygen saturation on 4 patients with COPD (chronic obstructive pulmonary disease) treated with sildenafil (75 mg/day) (oral) measured at rest over a period of 6 months. The arterial oxygen saturation in the patient improved respectively by 2%, 4%, 5% and 6%, compared with the saturation at the start of the series of measurements (time: 0 months). […]

[5] = tested on: patients with COPD (chronic obstructive pulmonary disease); assay: 6-minutes walking test in COPD patients; format: in vivo, human; conditions: 6 months
Description: FIG. 7: Result of the 6-minutes walking test measured on 4 patients with COPD (chronic obstructive pulmonary disease). […]

Row | Structure (SMILES) | effect on shunting [1] | shunting (MIGET), level reached [1] | arterial oxygen partial pressure (delta PaO2) / O2 saturation, increase [2] | effect on shunting / ventilation/perfusion distribution [3] | shunting / shunt perfusion (MIGET), level reached [3] | arterial oxygen partial pressure / oxygen saturation, decrease ([2]; PGI intravenous 6 ng/kg/min) | arterial oxygen saturation at rest, improvement compared with the start (0 months), one value per patient [4] | 6-minutes walking distance, improvement compared with the starting point (0 months), one value per patient ([5]; 4 COPD patients, 75 mg sildenafil oral each day) | functional capacity (6-min walking, arterial O2 saturation), words ([5]; 4 patients, 50 mg/d sildenafil oral)
1 | [N]=O [NO, nitric oxide] | reduced the shunting | 9% | 5% and 4.8% | virtually unchanged; also recorded: no effect | 5% |  |  |  | 
2 | CCCCC[C@H](O)/C=C/[C@@H]1[C@H]2C/C(=C/CCCC(=O)O)O[C@H]2C[C@H]1O [PGI, prostacyclin] |  | about 30% |  |  | 18% and ~20% | 12.5% and 12% |  |  | 
3 | CCCc1nn(C)c2c(=O)[nH]c(-c3cc(S(=O)(=O)N4CCN(C)CC4)ccc3OCC)nc12 [sildenafil, 5-[2-ethoxy-5-(4-methyl-1-piperazinyl-sulphonyl)phenyl]-1-methyl-3-n-propyl-1,6-dihydro-7H-pyrazolo[4,3-d]pyrimidin-7-one] | reduced the shunting even more than NO | 6% | 15% and 13% | virtually unchanged; also recorded: no effect | 4.8% |  | 2% and 4% and 5% and 6% | 41% and 45% and 74% and 150% | marked improvement
